Laboratory results as given in patent publication US10774051B2, “6-membered heterocyclic derivatives and pharmaceutical composition comprising the same” (Shionogi & Co., Ltd., priority 2015, dated 2020).
Where two headings read alike, the source gives them in different places.

Molecular target: human P2X7 receptor (Homo sapiens, UniProt Q99572, R270H/Y155H)
Assay: Evaluation of human P2X7 receptor inhibitory activity (Yo-Pro uptake, BzATP stimulation, FLIPR TETRA)
Type: cell-based
Details: 1321N1 cells stably expressing human P2X7 receptor, BzATP stimulation, Yo-Pro uptake
Outline: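 Yo-Pro dye uptake triggered by BzATP was monitored by FLIPR in human P2X7-transfected 1321N1 cells (SNP variant) in HEPES-buffered HBSS, pH 7.4-7.5. Compound was dispensed 8 min post-stimulation, then signal read for 20 min; IC50 derived logistically from inhibition of the fluorescence range.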

[1] = read-out: IC50 (antagonistic activity for the human P2X7 receptor), class symbol
[2] = read-out: IC50 (antagonistic activity for the human P2X7 receptor)

SMILES	IC50 [1] [nM]	IC50 [2] [nM]
COc1cn(Cc2ccccc2OC(F)F)c(Nc2cccc(Cl)c2C)nc1=O [Compound I-0474]	< 10	
COc1cn(Cc2ccccc2COC(F)F)c(Nc2cccc(Cl)c2C)nc1=O [Compound I-0475]	< 10	
COc1cn(Cc2ccccc2)c(Nc2cc(Cl)c(Cl)cc2C)nc1=O [Compound I-0476]	< 10	
COc1cc(C)cc(Nc2nc(=O)c(OC)cn2Cc2ccc(F)c(Cl)c2)c1C [Compound I-0477]	< 10	
COc1cn(Cc2cc(C)cc(F)c2)c(Nc2cccc(Cl)c2C)nc1=O [Compound I-0478]	< 10	
COc1cn(Cc2cccc(Cl)c2)c(Nc2cccc(OC(F)F)c2C)nc1=O [Compound I-0479]	10 to 100	
COc1cn(Cc2ccc(F)c(F)c2)c(Nc2cccc(OC(F)F)c2C)nc1=O [Compound I-0480]		4
COc1cn(Cc2cccc(Cl)c2)c(Nc2cccc(C)c2Cl)nc1=O [Compound I-0481]	10 to 100	
COc1cn(Cc2ccc(F)c(F)c2)c(Nc2cccc(C)c2Cl)nc1=O [Compound I-0482]	< 10	
COc1cn(Cc2ccc(F)c(Cl)c2)c(Nc2cccc(C)c2Cl)nc1=O [Compound I-0483]	< 10	
COc1cn(Cc2cccc(Cl)c2)c(Nc2cccc3sccc23)nc1=O [Compound I-0484]	10 to 100	
COc1cn(Cc2ccc(F)c(F)c2)c(Nc2cccc3sccc23)nc1=O [Compound I-0485]	< 10	
COc1cn(Cc2ccc(F)c(Cl)c2)c(Nc2cccc3sccc23)nc1=O [Compound I-0486]	< 10	
COc1cn(Cc2cccc(Cl)c2)c(Nc2cccc3[nH]c(C)cc23)nc1=O [Compound I-0487]		25
COc1cn(Cc2ccc(F)c(F)c2)c(Nc2cccc3[nH]c(C)cc23)nc1=O [Compound I-0488]	10 to 100	
COc1cn(Cc2ccc(F)c(Cl)c2)c(Nc2cccc3[nH]c(C)cc23)nc1=O [Compound I-0489]	< 10	
COc1cn(Cc2cccc(Cl)c2)c(Nc2cc3[nH]ncc3cc2C)nc1=O [Compound I-0490]	< 10	
COc1cn(Cc2ccc(F)c(F)c2)c(Nc2cc3[nH]ncc3cc2C)nc1=O [Compound I-0491]	< 10	
COc1cn(Cc2ccc(F)c(Cl)c2)c(Nc2cc3[nH]ncc3cc2C)nc1=O [Compound I-0492]	< 10	
COc1cn(Cc2ccccc2)c(Nc2cc(OCC(F)(F)F)ccc2C)nc1=O [Compound I-0493]	10 to 100	
COc1cn(Cc2cccc(Cl)c2)c(Nc2cc(OCC(F)(F)F)ccc2C)nc1=O [Compound I-0494]	10 to 100	
COc1cn(Cc2ccc(F)c(F)c2)c(Nc2cc(OCC(F)(F)F)ccc2C)nc1=O [Compound I-0495]	10 to 100	
COc1cn(Cc2cc(F)cc(F)c2)c(Nc2cc(OCC(F)(F)F)ccc2C)nc1=O [Compound I-0496]	10 to 100	
COc1cn(Cc2ccc(F)c(Cl)c2)c(Nc2cc(OCC(F)(F)F)ccc2C)nc1=O [Compound I-0497]	10 to 100	
COc1ccc(Nc2nc(=O)c(OC)cn2Cc2ccccc2)c(C)c1C [Compound I-0499]	10 to 100	
COc1cn(Cc2ccccc2)c(Nc2cc(C(C)(C)C)ccc2C)nc1=O [Compound I-0500]	10 to 100	

SMILES	IC50 [1] [nM]	IC50 [2] [nM]
COc1cn(Cc2ccc(F)c(Cl)c2)c(Nc2cc(C(C)(C)C)ccc2C)nc1=O [Compound I-0501]	10 to 100	
COc1cn(Cc2ccc(F)c(Cl)c2)c(Nc2cc(C)cc(C)c2C)nc1=O [Compound I-0502]	10 to 100	
COc1cn(Cc2ccc(F)c(F)c2)c(Nc2cc(C)c(F)cc2C)nc1=O [Compound I-0503]	< 10	
COc1cn(Cc2cc(F)cc(F)c2)c(Nc2cccc(OC(F)F)c2C)nc1=O [Compound I-0504]	< 10	
COc1cn(Cc2cc(F)cc(F)c2)c(Nc2cccc(C)c2Cl)nc1=O [Compound I-0505]	10 to 100	
COc1cn(Cc2cccc(Cl)c2)c(Nc2cc(C)c(F)cc2C)nc1=O [Compound I-0506]	< 10	
COc1cn(Cc2ccc(F)c(Cl)c2)c(Nc2cc(C)c(F)cc2C)nc1=O [Compound I-0507]	< 10	
COc1cn(Cc2cc(F)cc(Cl)c2)c(Nc2cc(C)c(F)cc2C)nc1=O [Compound I-0508]	10 to 100	
COc1cccc(Nc2nc(=O)c(OC)cn2Cc2cc(F)cc(Cl)c2)c1C [Compound I-0509]	< 10	
COc1cc(Nc2nc(=O)c(OC)cn2Cc2cc(F)cc(F)c2)c(C)cc1Cl [Compound I-0510]	< 10	
COc1cn(Cc2ccc(F)c(Cl)c2)c(Nc2cccc(OC(F)F)c2C)nc1=O [Compound I-0511]	< 10	
COc1cn(Cc2ccccc2)c(Nc2cc(SC(F)(F)F)ccc2C)nc1=O [Compound I-0512]	100 to 500	
COc1cn(Cc2ccccc2)c(Nc2cc(S(C)(=O)=O)ccc2C)nc1=O [Compound I-0513]	100 to 500	
COc1cn(Cc2cc(F)cc(F)c2)c(Nc2cccc(OC(C)C)c2C)nc1=O [Compound I-0514]	10 to 100	
COc1cn(Cc2ccc(F)c(Cl)c2)c(Nc2cccc(OC(C)C)c2C)nc1=O [Compound I-0515]	10 to 100	
COc1cn(Cc2ccc(F)c(F)c2)c(Nc2ccc(OC(F)F)cc2C)nc1=O [Compound I-0516]	10 to 100	
COc1c(C)ccc(Nc2nc(=O)c(OC)cn2Cc2ccc(F)c(F)c2)c1C [Compound I-0517]	< 10	
COc1cn(Cc2ccc(F)c(F)c2)c(Nc2cc(Cl)c(Cl)cc2C)nc1=O [Compound I-0518]	10 to 100	
COc1cn(Cc2ccc(F)c(F)c2)c(Nc2ccc(N3CCOCC3)cc2C)nc1=O [Compound I-0519]	10 to 100	
COc1cn(Cc2ccc(F)c(C)c2)c(Nc2cccc(Cl)c2C)nc1=O [Compound I-0520]		9
COc1cn(Cc2cc(C)cc(C)c2)c(Nc2cccc(Cl)c2C)nc1=O [Compound I-0521]	500 to 1000	
COc1cn(Cc2ccc(F)c(F)c2)c(Nc2cc(-c3nnco3)ccc2C)nc1=O [Compound I-0523]	10 to 100	
COc1cn(Cc2ccc(F)c(Cl)c2)c(Nc2cc(CN3CCCC3)ccc2C)nc1=O [Compound I-0524]	100 to 500	
COc1cn(Cc2ccccc2)c(Nc2cc(-n3c(C)ccc3C)ccc2C)nc1=O [Compound I-0525]	100 to 500	
COc1cn(Cc2ccc(F)c(Cl)c2)c(Nc2cc(-n3c(C)ccc3C)ccc2C)nc1=O [Compound I-0526]	10 to 100	
COc1cn(Cc2ccccc2)c(Nc2cccc3[nH]c(-c4ccccc4)cc23)nc1=O [Compound I-0527]	500 to 1000	

SMILES	IC50 [1] [nM]	IC50 [2] [nM]
COc1cn(Cc2cc(F)cc(Cl)c2)c(Nc2cc(C)c(OC(F)F)cc2C)nc1=O [Compound I-0529]	10 to 100	
COc1cn(Cc2ccc(F)c(F)c2)c(Nc2ccc(OC(C)C)cc2C)nc1=O [Compound I-0530]	10 to 100	
COc1cn(Cc2cc(F)cc(F)c2)c(Nc2ccc(OC(C)C)cc2C)nc1=O [Compound I-0531]	10 to 100	
COc1cn(Cc2ccc(F)c(Cl)c2)c(Nc2ccc(OC(C)C)cc2C)nc1=O [Compound I-0532]	10 to 100	
COc1cc(Nc2nc(=O)c(F)cn2Cc2ccc(F)c(Cl)c2)c(C)cc1Cl [Compound I-0533]	< 10	
COc1cc(Nc2nc(=O)c(OC)cn2Cc2cccc(Cl)c2)c(C)cc1Cl [Compound I-0534]	< 10	
COc1cc(Nc2nc(=O)c(OC)cn2Cc2ccc(F)c(F)c2)c(C)cc1Cl [Compound I-0535]	< 10	
COc1cc(Nc2nc(=O)c(OC)cn2Cc2ccc(F)c(Cl)c2)c(C)cc1Cl [Compound I-0536]	< 10	
COc1cc(Nc2nc(=O)c(OC)cn2Cc2cc(F)cc(Cl)c2)c(C)cc1Cl [Compound I-0537]	< 10	
COc1ccc(Nc2nc(=O)c(OC)cn2Cc2cc(F)cc(F)c2)c(C)c1 [Compound I-0538]	10 to 100	
COc1cn(Cc2cc(F)cc(F)c2)c(Nc2ccc(OC(F)F)cc2C)nc1=O [Compound I-0539]	10 to 100	
COc1c(C)ccc(Nc2nc(=O)c(OC)cn2Cc2cc(F)cc(F)c2)c1C [Compound I-0540]	< 10	
COc1cn(Cc2cc(F)cc(F)c2)c(Nc2cc(Cl)c(Cl)cc2C)nc1=O [Compound I-0541]	10 to 100	
CCc1cc(Cl)ccc1Nc1nc(=O)c(OC)cn1Cc1cc(F)cc(F)c1 [Compound I-0542]	10 to 100	
COc1cn(Cc2cc(F)cc(F)c2)c(Nc2ccc(N3CCOCC3)cc2C)nc1=O [Compound I-0543]	10 to 100	
COc1ccc(Cl)c(Nc2nc(=O)c(OC)cn2Cc2ccc(F)c(Cl)c2)c1 [Compound I-0544]	10 to 100	
CCc1cc(Cl)ccc1Nc1nc(=O)c(OC)cn1Cc1ccc(F)c(Cl)c1 [Compound I-0545]	< 10	
COc1cn(Cc2ccc(F)c(Cl)c2)c(Nc2cc(SC(F)(F)F)ccc2C)nc1=O [Compound I-0546]	10 to 100	
COc1cn(Cc2ccc(F)c(Cl)c2)c(Nc2cc(S(C)(=O)=O)ccc2C)nc1=O [Compound I-0547]	10 to 100	
COc1cn(Cc2ccc(F)c(Cl)c2)c(Nc2ccc(N3CCOCC3)cc2C)nc1=O [Compound I-0548]	10 to 100	
COc1cn(Cc2ccc(F)c(Cl)c2)c(Nc2cc(-c3ncco3)ccc2C)nc1=O [Compound I-0549]	< 10	
COc1cn(Cc2cc(F)cc(F)c2)c(Nc2cccc(SC)c2C)nc1=O [Compound I-0550]		2
COc1cn(Cc2cc(F)cc(F)c2)c(Nc2cc(S(C)(=O)=O)c(C)cc2C)nc1=O [Compound I-0551]	10 to 100	
COc1cn(Cc2cc(F)cc(F)c2)c(Nc2cc(N3CCCS3(=O)=O)ccc2C)nc1=O [Compound I-0552]	10 to 100	
COc1cn(Cc2cc(F)cc(F)c2)c(Nc2cc3sc(C)nc3cc2C)nc1=O [Compound I-0553]	10 to 100	
COc1cn(Cc2cc(F)cc(F)c2)c(Nc2cc(-c3ncco3)ccc2C)nc1=O [Compound I-0554]	10 to 100	
